In ChEMBL document CHEMBL6078723, “Novel steroidal β-carboline derivatives as promising antibacterial candidates against methicillin-resistant Staphylococcus aureus” (Eur J Med Chem, 2025):
Activity calls are given as the source filed them. The rule behind the calls is not given here.

Key:
[1] = system: Staphylococcus aureus; test: Antibacterial activity against Staphylococcus aureus CGMCC1.8721; format: functional
[2] = system: Staphylococcus aureus; test: Antibacterial activity against methicillin-resistant Staphylococcus aureus ATCC 43300; format: functional
[3] = system: Staphylococcus aureus; test: Antibacterial activity against methicillin-resistant Staphylococcus aureus CGMCC1.12409; format: functional
[4] = system: Staphylococcus aureus; test: Bactericidal activity against methicillin-resistant Staphylococcus aureus ATCC 43300 by CLSI based method; format: functional
[5] = system: HEK-293T; test: Cytotoxicity against HEK293T cells at 40 uM by CCK8 assay relative to control; format: toxicity, cell-based; settings: human
[6] = Selectivity index, ratio of HC50 for hemolytic activity in rabbit RBC to MIC for antibacterial activity against Staphylococcus aureus; format: toxicity, cell-based; settings: rabbit red blood cells
[7] = system: Staphylococcus aureus; test: Induction of bacterial regrowth of Staphylococcus aureus CGMCC1.8721 at 4 to 8 times MIC measured after 24 hrs by time kill assay; format: functional, organism-based
[8] = system: Staphylococcus aureus; test: Antibacterial activity against Staphylococcus aureus CGMCC1.8721 in presence of Na+ (reference value: 0.5 ug/ml); format: functional
[9] = system: Staphylococcus aureus; test: Antibacterial activity against Staphylococcus aureus CGMCC1.8721 in presence of Mg2+ (reference value: 0.5 ug/ml); format: functional
[10] = system: Staphylococcus aureus; test: Antibacterial activity against Staphylococcus aureus CGMCC1.8721 in presence of Zn2+ (reference value: 0.5 ug/ml); format: functional
[11] = system: Staphylococcus aureus; test: Antibacterial activity against Staphylococcus aureus CGMCC1.8721 in presence of Fe2+ (reference value: 0.5 ug/ml); format: functional
[12] = system: Staphylococcus aureus; test: Antibacterial activity against Staphylococcus aureus CGMCC1.8721 at pH 8 (reference value: 0.5 ug/ml); format: functional
[13] = system: Staphylococcus aureus; test: Antibacterial activity against Staphylococcus aureus CGMCC1.8721 at 36.5 degreeC (reference value: 0.5 ug/ml); format: functional
[14] = system: Staphylococcus aureus; test: Antibacterial activity against methicillin-resistant Staphylococcus aureus ATCC 43300 in presence of Na+ (reference value: 0.5 ug/ml); format: functional
[15] = system: Staphylococcus aureus; test: Antibacterial activity against methicillin-resistant Staphylococcus aureus ATCC 43300 in presence of Zn2+ (reference value: 0.5 ug/ml); format: functional
[16] = system: Staphylococcus aureus; test: Antibacterial activity against methicillin-resistant Staphylococcus aureus ATCC 43300 in presence of Fe2+ (reference value: 0.5 ug/ml); format: functional
[17] = system: Staphylococcus aureus; test: Antibacterial activity against methicillin-resistant Staphylococcus aureus ATCC 43300 in presence of Fe3+ (reference value: 0.5 ug/ml); format: functional
[18] = system: Staphylococcus aureus; test: Antibacterial activity against methicillin-resistant Staphylococcus aureus ATCC 43300 in presence of H2PO4- (reference value: 0.5 ug/ml); format: functional
[19] = system: Staphylococcus aureus; test: Antibacterial activity against methicillin-resistant Staphylococcus aureus ATCC 43300 at pH 6.5 (reference value: 0.5 ug/ml); format: functional
[20] = system: Staphylococcus aureus; test: Antibacterial activity against methicillin-resistant Staphylococcus aureus ATCC 43300 at 36.5 degreeC (reference value: 0.5 ug/ml); format: functional
[21] = system: Staphylococcus aureus; test: Antibacterial activity against methicillin-resistant Staphylococcus aureus CGMCC1.12409 in presence of Na+ (reference value: 0.5 ug/ml); format: functional
[22] = system: Staphylococcus aureus; test: Antibacterial activity against methicillin-resistant Staphylococcus aureus CGMCC1.12409 in presence of Zn2+ (reference value: 0.5 ug/ml); format: functional
[23] = system: Staphylococcus aureus; test: Antibacterial activity against methicillin-resistant Staphylococcus aureus CGMCC1.12409 in presence of H2PO4- (reference value: 0.5 ug/ml); format: functional
[24] = system: Staphylococcus aureus; test: Antibacterial activity against methicillin-resistant Staphylococcus aureus CGMCC1.12409 at pH 6.5 (reference value: 0.5 ug/ml); format: functional
[25] = system: Staphylococcus aureus; test: Antibacterial activity against methicillin-resistant Staphylococcus aureus CGMCC1.12409 at 37.5 degreeC (reference value: 0.5 ug/ml); format: functional
[26] = system: Staphylococcus aureus; test: Antibacterial activity against methicillin-resistant Staphylococcus aureus ATCC 33591 in presence of Na+ (reference value: 1 ug/ml); format: functional
[27] = system: Staphylococcus aureus; test: Antibacterial activity against methicillin-resistant Staphylococcus aureus ATCC 33591 in presence of K+ (reference value: 1 ug/ml); format: functional
[28] = system: Staphylococcus aureus; test: Antibacterial activity against methicillin-resistant Staphylococcus aureus ATCC 33591 in presence of Ca2+ (reference value: 1 ug/ml); format: functional
[29] = system: Staphylococcus aureus; test: Antibacterial activity against methicillin-resistant Staphylococcus aureus ATCC 33591 in presence of Fe2+ (reference value: 1 ug/ml); format: functional
[30] = system: Staphylococcus aureus; test: Antibacterial activity against methicillin-resistant Staphylococcus aureus ATCC 33591 in presence of Fe3+ (reference value: 1 ug/ml); format: functional
[31] = system: Staphylococcus aureus; test: Antibacterial activity against methicillin-resistant Staphylococcus aureus ATCC 33591 at pH 6.5 (reference value: 1 ug/ml); format: functional
[32] = system: Staphylococcus aureus; test: Antibacterial activity against methicillin-resistant Staphylococcus aureus ATCC 33591 at pH 8 (reference value: 1 ug/ml); format: functional
[33] = system: Staphylococcus aureus; test: Induction of inner membrane permeability in Staphylococcus aureus CGMCC1.8721 assessed as increase in red fluorescence intensity by PI staining based analysis; format: functional, organism-based
[34] = system: Staphylococcus aureus; test: Induction of loss of membrane integrity in Staphylococcus aureus CGMCC1.8721 assessed as protein leakage; format: functional, organism-based
[35] = system: Staphylococcus aureus; test: Induction of ROS accumulation in Staphylococcus aureus CGMCC1.8721 by DCFH-DA dye based analysis; format: functional, organism-based
[36] = system: Staphylococcus aureus; test: Antibacterial activity against Staphylococcus aureus CGMCC1.8721 in presence of phosphatidylglycerol; format: functional, organism-based
[37] = system: Staphylococcus aureus; test: Antibacterial activity against Staphylococcus aureus CGMCC1.8721 in presence of phosphatidylethanolamine; format: functional, organism-based
[38] = system: Staphylococcus aureus; test: Antibacterial activity against Staphylococcus aureus CGMCC1.8721 in presence of PGN; format: functional, organism-based
[39] = system: Staphylococcus aureus; test: Antibacterial activity against Staphylococcus aureus CGMCC1.8721 in presence of ATP; format: functional, organism-based
[40] = system: Staphylococcus aureus; test: Induction of morphological change in Staphylococcus aureus CGMCC1.8721 assessed as appearance of surface folds at MIC by […] SEM analysis; format: functional, organism-based
[41] = system: Staphylococcus aureus; test: Induction of morphological change in Staphylococcus aureus CGMCC1.8721 assessed as appearance of atrophy at MIC by […] SEM analysis; format: functional, organism-based
[42] = system: Staphylococcus aureus; test: Induction of morphological change in Staphylococcus aureus CGMCC1.8721 assessed as cell rupture at 4 times MIC by […] SEM analysis; format: functional, organism-based
[43] = system: Staphylococcus aureus; test: Antibacterial activity against methicillin-resistant Staphylococcus aureus CGMCC1.12409 infected in mouse model assessed as reduction in abscesses size at 5 to 10 mg/kg measured for 5 days; format: functional, organism-based; settings: dose 5-10 mg/kg, time 5.0 day
[44] = system: Staphylococcus aureus; test: Antibacterial activity against methicillin-resistant Staphylococcus aureus CGMCC1.12409 infected in mouse model assessed as reduction in abscesses in subcutaneous tissues at 10 mg/kg measured for 5 days; format: functional, organism-based; settings: time 5.0 day
[45] = system: Staphylococcus aureus; test: Antibacterial activity against methicillin-resistant Staphylococcus aureus CGMCC1.12409 infected in mouse model assessed as reduction in neutrophils in skin tissues at 5 to 10 mg/kg measured for 5 days by H and E staining based analysis; format: functional, organism-based; settings: dose 5-10 mg/kg, time 5.0 day

Structure (SMILES): COc1ccc2[nH]c3c(CC[C@H](C)[C@H]4CC[C@H]5[C@@H]6[C@H](O)C[C@@H]7C[C@H](O)CC[C@]7(C)[C@H]6C[C@H](O)[C@]45C)[n+](Cc4ccc(Cl)cc4)ccc3c2c1.[Br-]
- MIC [1]: 0.5 µg/mL
- MIC [2]: 0.5 µg/mL
- MIC [3]: 0.5 µg/mL
- MBC [4]: 1 µg/mL
- Activity [5]: Non-toxic
- selectivity ratio [6]: > 256
- Activity [7]: Not active; Compound Activity Was Higher Than That Of Vancomycin
- MIC [8]: 0.5 µg/mL
- MIC [9]: 0.5 µg/mL
- MIC [10]: 0.5 µg/mL
- MIC [11]: 0.5 µg/mL
- MIC [12]: 0.5 µg/mL
- MIC [13]: 0.5 µg/mL
- MIC [14]: 0.5 µg/mL
- MIC [15]: 0.5 µg/mL
- MIC [16]: 0.5 µg/mL
- MIC [17]: 0.5 µg/mL
- MIC [18]: 0.5 µg/mL
- MIC [19]: 0.5 µg/mL
- MIC [20]: 0.5 µg/mL
- MIC [21]: 1 µg/mL
- MIC [22]: 1 µg/mL
- MIC [23]: 1 µg/mL
- MIC [24]: 1 µg/mL
- MIC [25]: 0.5 µg/mL
- MIC [26]: 1 µg/mL
- MIC [27]: 1 µg/mL
- MIC [28]: 1 µg/mL
- MIC [29]: 1 µg/mL
- MIC [30]: 1 µg/mL
- MIC [31]: 1 µg/mL
- MIC [32]: 1 µg/mL
- Activity [33]: Dose-dependent-effect
- Activity [34]: Dose-dependent-effect
- Activity [35]: Dose-dependent-effect
- Activity [36]: inactive
- Activity [37]: Active
- Activity [38]: Active
- Activity [39]: Active
- Activity [40]: Active
- Activity [41]: Active
- Activity [42]: Active
- Activity [43]: Active
- Activity [44]: Active
- Activity [45]: Active
